The values below come from US20220160647A1, “TRANSDERMAL DRUG DELIVERY DEVICE/TRANSDERMAL PATCH AND OTHER APPLICATIONS OF EMULSION FORMULATION” (First Necessity, LLC, priority 2020, published 2022).

Data set [1] can be described thus: Solubility of CBD in water, MCT oil and the liposomal polymeric emulsion. It is filed as physicochemical. The source says:
(E. Samara and M. Bialer, Drug Metab. Dispos., 16 (6) 875-879 (1988). This provides a maximum weight/weight percent of approximately 0.07%.
In certain embodiments of the present teaching, hyaluronic acid may be present in the polymeric-emulsion disclosed herein. Such embodiments also include the presence of water. […] In the present case, this value was slightly exceeded in testing the liposomal polymeric emulsion set forth herein in combination with hyaluronic acid, water and MCT as the hydrophobic component. […] That said, the polymeric liposomal emulsion set forth herein retains the ability to dissolve water soluble compounds even when incorporating oil-soluble compounds at a relatively high percentage or amount.

For data set [2] the following is noted: accepted value (Samara and Bialer 1988); cited from earlier work.
[3] abbreviates: liposomal polymeric emulsion with hyaluronic acid, water and MCT.

Each structure is given as a SMILES string.

Turning to `C=C(C)[C@@H]1CCC(C)=C[C@H]1c1c(O)cc(CCCCC)cc1O` [CBD, cannabidiol], in data set [1] (MCT oil), the “concentration of CBD in stable solution” value was determined as 400000 µg/mL and the “concentration of CBD in stable solution, by weight” value came out at 40 % by weight. Moreover, the “increase in CBD solubility compared to base MCT oil” value in data set [1] (liposomal polymeric emulsion vs base MCT oil) came out at 1.125 fold. In data set [1] (liposomal polymeric emulsion vs water), the “increase in CBD solubility compared to water” value is on record as “greater than 500 fold”. Further, in data set [1] (setting [3]), the “concentration of CBD in solution” value amounted to 450000 µg/mL and the “concentration of CBD in solution, by weight” value was 45 % by weight. In data set [1] (pure water, worked out from 0.7 μg per mL), the “maximum weight/weight percent of CBD in water” value is reported as “approximately 0.07%”. The “solubility of CBD in pure water” value in data set [2] is 0.7 μg per mL.
